Reference: patent publication EP4691485A1, “MUCOSAL ADJUVANT” (priority 2023, dated 2024)

What was measured:
Assay type in all cases: in vivo, BALB/c mice
[1] = system: Influenza virus HA protein antigen: A/Guangdong-Maonan/SWL1536/2019(CNIC-1909)(H1N1); assay: ELISA of antigen-specific IgA and IgG after vaccination and virus challenge (Example 5); conditions: twice, HA 0.1 µg alone or with TY001 S-form 0.01-0.3 µg and 0.01% chondroitin sulfate sodium
Protocol: (§1) For the nasal administration test, 7-week-old female BALB/c mice (9-10 mice per group) were used. Influenza virus HA protein antigen: A/Guangdong-Maonan/SWL1536/2019(CNIC-1909)(H1N1) and influenza virus: A/Guangdong-Maonan/SWL1536/2019(CNIC-1909)(H1N1) (Osaka University Microbial Disease Research Institute) were used. The vaccine formulations included HA 0.1 µg alone, and a formulation containing HA 0.1 µg co-administered with TY001 S-form at doses of 0.01-0.3 µg, and 0.01% chondroitin sulfate sodium as an additive. Vaccine solutions were administered into the nasal cavity, 5 µL into each nostril (10 µL/mouse), twice at a 3-week interval. As a control, a group subcutaneously administered with HA 0.1 µg alone was set up. Two weeks after the second administration (day 35), viral fluid was administered at 2 µL into each nostril (1x10^5 TCID50/mouse). Three days later (day 38), nasal wash fluid and serum were collected. The viral titer in the nasal wash fluid, antigen-specific IgA in nasal wash fluid, and IgG in serum were measured by ELISA.

[2] = system: influenza virus (A/Singapore/GP1908/2015(IVR-180)(H1N1)pdm09); conditions: HA 0.1 µg alone or with 3 µg adjuvant, twice, 3-week interval, sampled day 38, Fig. 1
[3] = system: influenza virus: A/Guangdong-Maonan/SWL1536/2019(CNIC-1909)(H1N1); assay: Infection protection test: viral titer in nasal wash fluid (Example 5)
Protocol: as §1

[4] = system: A/Singapore/GP1908/2015(IVR-180)(H1N1)pdm09; conditions: HA 0.1 µg alone or with 3 µg adjuvant, nasal, twice; for Serum HI antibody titers, Geometric Mean Titer (GMT): 3-week interval, serum day 38
[5] = system: HA antigen (A/Singapore/GP1908/2015(IVR-180)(H1N1)pdm09); assay: ELISA of antigen-specific IgA and IgG after nasal vaccination (Example 1); conditions: HA 0.1 µg alone or with 3 µg adjuvant, twice; for antigen-specific IgA level in the nasal lavage fluid: day 38, 2^2-fold dilution, Fig. 2; for antigen-specific IgG level in serum: day 38, 2^12-fold dilution, Fig. 3
[6] = system: Influenza virus HA protein antigen A/Guangdong-Maonan/SWL1536/2019(CNIC-1909)(H1N1); assay: ELISA of antigen-specific IgA and IgG, improved formulation with chondroitin sulfate sodium (Example 4); conditions: Fig. 7
Protocol: For the nasal administration test, 7-week-old female BALB/c mice were used, with 8 mice per group. Influenza virus HA protein antigen A/Guangdong-Maonan/SWL1536/2019(CNIC-1909)(H1N1) (Research Foundation for Microbial Diseases of Osaka University) was used. Vaccine groups included HA 0.1 µg alone, or HA 0.1 µg with 0.1 µg of TY001 S-form as adjuvant, and groups with/without 0.01% chondroitin sulfate sodium as an additive.
The vaccine solution was administered intranasally to mice at 5 µL per nostril (10 µL/mouse) twice, with a 3-week interval. Two weeks after the second administration (day 35), nasal lavage fluid and serum were collected, and antigen-specific IgA levels in nasal lavage fluid and IgG levels in serum were measured by ELISA.

SARS-CoV-2 S protein = assay: ELISA of antigen-specific IgA and IgG after nasal vaccination with SARS-CoV-2 antigen (Example 3); conditions: 3 µg S protein alone or with 0.3 µg TY001 S-form
[7] = system: Influenza virus HA protein antigen: A/Guangdong-Maonan/SWL1536/2019(CNIC-1909)(H1N1); assay: Comparative test with various adjuvants: ELISA of antigen-specific IgA and IgG (Example 6); conditions: HA 0.1 µg + 1 µg TY001 S-form (0.01% chondroitin sulfate sodium), twice
Protocol: For the nasal administration test, 8-week-old female BALB/c mice (6 mice per group) were used. Influenza virus HA protein antigen: A/Guangdong-Maonan/SWL1536/2019(CNIC-1909)(H1N1) (Osaka University Microbial Disease Research Institute) was used. Vaccine formulations included HA 0.1 µg alone, and those co-administered intranasally with 1 µg of TY001 S-form (formulation containing 0.01% chondroitin sulfate sodium as an additive), Cholera Toxin B subunit (CTB) (Fujifilm Wako Pure Chemical Corporation), CpG ODN (ODN 1826) (InvivoGen), or Polyinosinic-polycytidylic acid (Poly(I:C)) (InvivoGen). Each vaccine solution was administered into the nasal cavity, 5 µL into each nostril (10 µL/mouse), twice at a 3-week interval. A group subcutaneously administered with HA 0.1 µg + Alum 2 mg was also used. Two weeks after the second administration (day 35), nasal wash fluid, bronchoalveolar lavage fluid, and serum were collected. Antigen-specific IgA in nasal wash fluid and bronchoalveolar lavage fluid, and IgG in serum and bronchoalveolar lavage fluid were measured by ELISA.

[8] = system: Influenza HA protein antigen (A/California/7/2009(H1N1)pdm); assay: ELISA of antigen-specific IgA and IgG after nasal vaccination with CL401, CL413 or CL531 (Example 2); conditions: 1 µg HA alone or with 0.662 nmol or 6.62 nmol test compound
[9] = HA 0.1 µg + 0.1 µg TY001 S-form + 0.01% chondroitin sulfate sodium, compared with no additive
[10] = HA 0.1 µg + 0.1 µg TY001 S-form, nasal, twice, 3-week interval, day 35

CCCCCCCCCCCCCCCC(=O)OC[C@@H](CSC[C@H](N)C(=O)NCCCNCCCCNCCCNC(=O)CNC(=O)c1ccc(Cn2c(O)nc3c(N)nc(NCCCC)nc32)cc1)OC(=O)CCCCCCCCCCCCCCC [TY001 S-form, (20R,24S)-20-amino-1-(4-((6-amino-2-(butylamino)-8-hydroxy-9H-purin-9-yl)methyl)phenyl)-1,4,19-trioxo-22-thia-2,5,9,14,18-pentaazapentacosane-24,25-diyl dipalmitate]
antigen-specific IgG in serum ([1]; nasal, day 38, Fig. 9): dose-dependent induction of nasal IgA and serum IgG
antigen-specific IgA in nasal wash fluid ([1]; day 38, Fig. 9): dose-dependent induction of nasal IgA and serum IgG
viral titer in the nasal lavage fluid [2]: showed suppression of viral infection
viral titer in nasal wash fluid ([3]; HA 0.1 µg + TY001 S-form 0.1 µg + 0.01% chondroitin sulfate sodium, Fig. 8): no virus detected in any individual
viral titer in nasal wash fluid ([3]; HA 0.1 µg + TY001 S-form 0.3 µg + 0.01% chondroitin sulfate sodium, Fig. 8): no virus detected in any individual
viral titer in nasal wash fluid ([3]; twice, HA 0.1 µg alone or with TY001 S-form 0.01-0.3 µg and 0.01% chondroitin sulfate sodium, virus 1x10^5 TCID50/mouse day 35, day 38, Fig. 8): dose-dependent inhibition of viral infection
HI antibody titer in serum [4]: showed an increase
Serum HI antibody titers, Geometric Mean Titer (GMT) [4]: 85.7
antigen-specific IgA level in the nasal lavage fluid [5]: showed induction of antigen-specific IgA antibodies in the nasal cavity
antigen-specific IgG level in serum [5]: showed an increase
antibody-inducing effect, IgA in nasal wash fluid [6, 9]: stronger
antibody-inducing effect, IgG in serum [6, 9]: stronger
antigen-specific IgA in nasal wash fluid [6, 10]: induced
antigen-specific IgG in serum [6, 10]: induced
antigen-specific IgA level in the nasal lavage fluid (SARS-CoV-2 S protein; day 0 and 21, day 35, 2^3-fold dilution, Fig. 5): showed induction of antigen-specific IgA antibodies in the nasal cavity
antigen-specific IgG level in serum (SARS-CoV-2 S protein; day 0 and 21, day 35, 2^8-fold dilution, Fig. 6): showed an increase in antigen-specific IgG antibodies
antigen-specific IgA in bronchoalveolar lavage fluid ([7]; nasal, day 35, Fig. 10): also induced
antigen-specific IgG in bronchoalveolar lavage fluid ([7]; nasal, day 35, Fig. 10): also induced
antibody-inducing ability (antigen-specific IgA in nasal wash fluid and bronchoalveolar lavage fluid, IgG in serum and bronchoalveolar lavage fluid) ([7]; compared with CTB, CpG ODN (ODN 1826), Poly(I:C) nasal and Alum 2 mg subcutaneous, day 35, Fig. 10): stronger antibody-inducing ability at a lower dose compared to any other adjuvant

CCCCCCCCCCCCCCCC(=O)OC[C@H](CSC[C@H](N)C(=O)NCCCNCCCCNCCCNC(=O)CNC(=O)c1ccc(Cn2c(O)nc3c(N)nc(NCCCC)nc32)cc1)OC(=O)CCCCCCCCCCCCCCC [TY001 R-form, (20R,24R)-20-amino-1-(4-((6-amino-2-(butylamino)-8-hydroxy-9H-purin-9-yl)methyl)phenyl)-1,4,19-trioxo-22-thia-2,5,9,14,18-pentaazapentacosane-24,25-diyl dipalmitate]
viral titer in the nasal lavage fluid [2]: showed suppression of viral infection
HI antibody titer in serum [4]: showed an increase
Serum HI antibody titers, Geometric Mean Titer (GMT) [4]: 69.6
antigen-specific IgA level in the nasal lavage fluid [5]: showed induction of antigen-specific IgA antibodies in the nasal cavity
antigen-specific IgG level in serum [5]: showed an increase

CCCCCCCCCCCCCCCC(=O)OCC(CSC[C@H](N)C(=O)Nc1ccc(Cn2c(O)nc3c(N)nc(NCCCC)nc32)cc1)OC(=O)CCCCCCCCCCCCCCC (some centres unmarked) [CL401]
antigen-specific IgG antibodies in plasma ([8]; day 0 and day 14, day 27, rank order, Fig. 4 lower panel): CL413 > CL531 > CL401
antigen-specific IgA in nasal lavage fluid ([8]; day 0 and day 14, day 28, rank order, Fig. 4 upper panel): CL413 > CL531 > CL401
